SMILES strings stand for the structures. ≈ marks a conversion by molar mass, not a printed value.

In one test the test system is S. aureus ATCC 25923. As to the kind of experiment: microbe, parasite or virus in culture. The text has this:
(§1) Clinical S. aureus strains were collected from patients with atopic dermatitis during their visits to the Outpatient Clinic and hospitalization in the Department of Dermatology, Venereology and Allergology at Medical University of Gdańsk (following the approval from the ethics committee, Approval Number NKBBN/242–477/2014). Reference strains of S. aureus ATCC 25923, S. aureus ATCC 33591, S. aureus ATCC 9144, and S. aureus ATCC 12598 were obtained from the American Type Culture Collection. All the strains were stored at − 80 °C in Roti®-Store cryo vials (Carl Roth GmbH, Karlsruhe, Germany) and before the tests were transferred into fresh Mueller–Hinton Medium (BioMaxima, Lublin, Poland) and incubated for 24 h at 37 °C. Subsequently, each bacterial inoculum was seeded on Mueller–Hinton agar plates (BioMaxima) and incubated again for 24 h. The cultures prepared in this way were used in further antimicrobial assays. Minimum inhibitory concentrations (MICs) were determined according to the Clinical and Laboratory Standards Institute recommendations. […] The experiments were conducted on 96-well microtiter plates, with a final volume of 100 μL. Additionally, in the case of daptomycin, the medium was supplemented with Ca^2+ (50 mg/L). Cell densities were adjusted spectrophotometrically (Multiskan™ GO Microplate Spectrophotometer, Thermo Scientific) at 600 nm. The MICs were taken as the lowest drug concentration at which a visible growth of the microorganisms was inhibited. Minimum biofilm eliminating concentrations (MBECs) were determined on 96-well flat-bottomed microtiter polystyrene plates with resazurin (7-hydroxy-3H-phenoxazin-3-one 10-oxide sodium salt) as a cell viability reagent. To do this, the plates were filled with 100 μL of the initial inoculums of bacteria (0.5 × 10^7 CFU/mL) in the Mueller–Hinton broth and incubated for 24 h at 37 °C. […] After 24 h of incubation, 20 μL of resazurin (4 mg/mL) was added to each well and the MBEC values were read. Minimum biofilm inhibitory concentrations (MBICs) were also determined on 96-well flat-bottomed microtiter polystyrene plates as described previously. To do this, 50 μL of the compounds in the concentration range, diluted MHB, were prepared. Subsequently, the 50 μL of the staphylococcal inoculums were added to reach the same density of bacteria as that in the MBEC assay. After 24 h of incubation at 37 °C, the wells were rinsed three times with PBS and the fresh medium (100 μL) with resazurin (0.6 mg/mL) was added. Then, after 1 h of incubation, MBICs were read. […] All experiments were conducted in triplicate.
(§2) Formation of the biofilm inside the PDMS flow chambers was performed using three peristaltic pumps working simultaneously (LP-pump, Kamush, Lipopharm, Poland) and sterile Tygon® 3350 silicone hoses (2.4 × 0.8 × 0.8 mm) with a length of 30 and 50 cm for inlet and outlet, respectively. Bacterial suspensions were prepared (0.5 × 10^7 CFU/mL) in sterile 50-mL test tubes, which were placed in a heating block at 37 °C. Before experiments, all channels were assessed for tightness and sterilized using a 70% 2-propanol solution (10 min, flow rate 1 mL/min) and rinsed with sterile PBS solution (10 min, flow 0.1 mL/min). The formation of biofilm inside the channels was divided into three stages: (1) adhesion—at this stage S. aureus suspensions were passed through the channels for 4 h at a flow rate of 0.1 mL/min; (2) rinsing—the previously used hoses were replaced with new sterile ones, and the channels were rinsed with sterile PBS solution for 10 min at a flow rate of 0.1 mL/min; (3) biofilm growth—after flushing the channels, the silicone hoses were placed in tubes with MHB medium, which was passed through the channels for 24 h at a flow rate of 0.1 mL/min. All experiments included growth and sterility controls.
(§3) This assay was conducted also on the S. aureus ATCC 25923 and S. aureus 33,591 (MRSA) strains.

Test [1] concerns S. aureus ATCC 33591 (MRSA). As to the kind of experiment: microbe, parasite or virus in culture.
Description: as §1, §2, §3

In test [2] the test system is S. aureus clinical strain 004N (MRSA). On the set-up: method as in earlier work. The note with it: clinical isolate 004N (MRSA), nasal swab; cited from earlier work.
Test [3] concerns S. aureus clinical strain 005S. The arrangement: method as in earlier work. The note with it: clinical isolate 005S, skin; cited from earlier work.
In test [4] the test system is S. aureus clinical strain 009S. On the set-up: method as in earlier work. As to conditions: clinical isolate 009S, skin; cited from earlier work.
For test [5], the system named is S. aureus clinical strain 015N (MRSA). On the set-up: method as in earlier work. The note with it: clinical isolate 015N (MRSA), nasal swab; cited from earlier work.
For test [6], the system named is S. aureus clinical strain 030N. The arrangement: method as in earlier work. The note with it: clinical isolate 030N, nasal swab; cited from earlier work.
The test system of test [7] is S. aureus clinical strain 031S. The arrangement: method as in earlier work. As to conditions: clinical isolate 031S, skin; cited from earlier work.
The subject of test [8] is S. aureus clinical strain 043SC (MRSA). The arrangement: method as in earlier work. As to conditions: clinical isolate 043SC (MRSA), skin of patient with furuncle folliculitis; cited from earlier work.
The test system of test [9] is S. aureus clinical strain 051N (MRSA). The arrangement: method as in earlier work. As to conditions: clinical isolate 051N (MRSA), nasal swab; cited from earlier work.
Test [10] concerns S. aureus clinical strain 060S. On the set-up: method as in earlier work. The note with it: clinical isolate 060S, skin; cited from earlier work.
[11] abbreviates: S. aureus ATCC 33591 (MRSA) biofilm treated under flow with Retro-Omiganan (half MBEC) for 48 h.
Setting [12] is: Staphylococcus aureus, ATCC25923, 0 h, S. aureus 25923, time 0 h (baseline, before peptide exposure).
[13] abbreviates: Staphylococcus aureus, ATCC25923, 24 h, S. aureus 25923 biofilm treated under flow with Omiganan (half MBEC) for 24 h.
Where [14] appears, read: Staphylococcus aureus, ATCC25923, 24 h, S. aureus 25923 biofilm treated under flow with Retro-Omiganan (half MBEC) for 24 h.
Setting [15] is: Staphylococcus aureus, ATCC25923, 48 h, S. aureus 25923 biofilm treated under flow with Omiganan (half MBEC) for 48 h.
[16] abbreviates: Staphylococcus aureus, ATCC25923, 48 h, S. aureus 25923 biofilm treated under flow with Retro-Omiganan (half MBEC) for 48 h.
The mark [17] stands for this setting: Staphylococcus aureus, ATCC25923, 72 h, S. aureus 25923 biofilm treated under flow with Omiganan (half MBEC) for 72 h.
The mark [18] stands for this setting: Staphylococcus aureus, ATCC25923, 72 h, S. aureus 25923 biofilm treated under flow with Retro-Omiganan (half MBEC) for 72 h.
[19] abbreviates: Staphylococcus aureus, ATCC33591|MRSA, 0 h, S. aureus ATCC 33591 (MRSA), time 0 h (baseline, before peptide exposure).
[20] abbreviates: Staphylococcus aureus, ATCC33591|MRSA, 24 h, S. aureus ATCC 33591 (MRSA) biofilm treated under flow with Omiganan (half MBEC) for 24 h.
[21] abbreviates: Staphylococcus aureus, ATCC33591|MRSA, 24 h, S. aureus ATCC 33591 (MRSA) biofilm treated under flow with Retro-Omiganan (half MBEC) for 24 h.
Where [22] appears, read: Staphylococcus aureus, ATCC33591|MRSA, 48 h, S. aureus ATCC 33591 (MRSA) biofilm treated under flow with Omiganan (half MBEC) for 48 h.
[23] abbreviates: Staphylococcus aureus, ATCC33591|MRSA, 48 h, S. aureus ATCC 33591 (MRSA) biofilm treated under flow with Retro-Omiganan (half MBEC) for 48 h.
The mark [24] stands for this setting: Staphylococcus aureus, ATCC33591|MRSA, 72 h, S. aureus ATCC 33591 (MRSA) biofilm treated under flow with Omiganan (half MBEC) for 72 h.
Where [25] appears, read: Staphylococcus aureus, ATCC33591|MRSA, 72 h, S. aureus ATCC 33591 (MRSA) biofilm treated under flow with Retro-Omiganan (half MBEC) for 72 h.

Regarding `C/C(=C\C(=O)OCCCCCCCCC(=O)O)C[C@@H]1OC[C@H](C[C@@H]2O[C@H]2[C@@H](C)[C@H](C)O)[C@@H](O)[C@H]1O` [Mupirocin], the MIC against S. aureus ATCC 25923 (S. aureus 25923 biofilm treated under flow with Retro-Omiganan (half MBEC) for 24 h) was at most 0.25 µg/mL; with S. aureus ATCC 25923 (S. aureus 25923 biofilm treated under flow with Retro-Omiganan (half MBEC) for 48 h) it was at most 0.25 µg/mL; in the test on S. aureus ATCC 25923 (S. aureus 25923 biofilm treated under flow with Retro-Omiganan (half MBEC) for 72 h), at most 0.25 µg/mL; against S. aureus ATCC 25923 (Staphylococcus aureus, ATCC25923, 0 h), at most 0.25 µg/mL; with S. aureus ATCC 25923 (Staphylococcus aureus, ATCC25923, 24 h), at most 0.25 µg/mL; in the test on S. aureus ATCC 25923 (Staphylococcus aureus, ATCC25923, 48 h), at most 0.25 µg/mL. Besides, the MIC in the test on S. aureus ATCC 25923 (Staphylococcus aureus, ATCC25923, 72 h) was at most 0.25 µg/mL; in test [1] (S. aureus ATCC 33591 (MRSA) biofilm treated under flow with Retro-Omiganan (half MBEC) for 24 h), at most 0.25 µg/mL; in test [1] (setting [11]), at most 0.25 µg/mL; in test [1] (S. aureus ATCC 33591 (MRSA) biofilm treated under flow with Retro-Omiganan (half MBEC) for 72 h), at most 0.25 µg/mL; in test [1] (Staphylococcus aureus, 0 h), at most 0.25 µg/mL; in [1] (Staphylococcus aureus, 24 h), at most 0.25 µg/mL. Moreover, the MIC was at most 0.25 µg/mL in test [1] (Staphylococcus aureus, 48 h) and at most 0.25 µg/mL in [1] (Staphylococcus aureus, 72 h). Moreover, the “Antimicrobial susceptibility (MIC)” value is listed as 0.125 µg/mL in test [2]; over 512 µg/mL in test [3]; over 512 µg/mL in test [4]; 0.25 µg/mL in [5]; 0.25 µg/mL in [6]; 32 µg/mL in test [7]. Besides, the entries for the “Antimicrobial susceptibility (MIC)” value in test [8], in test [9] and in test [10] were 0.5 µg/mL, 0.25 µg/mL and over 512 µg/mL, respectively.

As for `CN[C@H](CC(C)C)C(=O)N[C@H]1C(=O)N[C@@H](CC(N)=O)C(=O)N[C@H]2C(=O)N[C@H]3C(=O)N[C@H](C(=O)N[C@H](C(=O)O)c4cc(O)cc(O)c4-c4cc3ccc4O)[C@H](O)c3ccc(c(Cl)c3)Oc3cc2cc(c3O[C@@H]2O[C@H](CO)[C@@H](O)[C@H](O)[C@H]2O[C@H]2C[C@](C)(N)[C@H](O)[C@H](C)O2)Oc2ccc(cc2Cl)[C@H]1O` [Vancomycin], the MIC with S. aureus ATCC 25923 (setting [12]), in the test with S. aureus ATCC 25923 (setting [13]), with S. aureus ATCC 25923 (setting [14]), against S. aureus ATCC 25923 (setting [15]), in the test with S. aureus ATCC 25923 (setting [16]) and with S. aureus ATCC 25923 (setting [17]) was 1 µg/mL (≈ 0.69 µM) throughout. Further, the MIC (in the test with S. aureus ATCC 25923 (setting [18]); in test [1] (setting [19]); in [1] (setting [20]); in [1] (setting [21]); in test [1] (setting [22]); in test [1] (setting [23])) was 1 µg/mL (≈ 0.69 µM) in each case. The MIC in test [1] (setting [24]) and in test [1] (setting [25]) was 1 µg/mL (≈ 0.69 µM) throughout. For the same molecule, the “Antimicrobial susceptibility (MIC)” value in test [2] is reported as 0.5 µg/mL; in [3], 0.125 µg/mL; in test [4], 0.25 µg/mL; in test [5] it was 1 µg/mL; in test [6], 2 µg/mL; in test [7], 0.25 µg/mL. Besides, the “Antimicrobial susceptibility (MIC)” value in test [8], in test [9] and in [10] was 0.5 µg/mL throughout.

Take `CCCCCCCCCC(=O)N[C@@H](Cc1c[nH]c2ccccc12)C(=O)N[C@H](CC(N)=O)C(=O)N[C@@H](CC(=O)O)C(=O)N[C@@H]1C(=O)NCC(=O)N[C@@H](CCCN)C(=O)N[C@@H](CC(=O)O)C(=O)N[C@H](C)C(=O)N[C@@H](CC(=O)O)C(=O)NCC(=O)N[C@H](CO)C(=O)N[C@@H]([C@H](C)CC(=O)O)C(=O)N[C@@H](CC(=O)c2ccccc2N)C(=O)O[C@@H]1C` [Daptomycin]: the MIC in the test with S. aureus ATCC 25923 (setting [12]) came out at 2 µg/mL (≈ 1.23 µM); against S. aureus ATCC 25923 (setting [13]), 2 µg/mL (≈ 1.23 µM); in the test with S. aureus ATCC 25923 (setting [14]) it was 1 µg/mL (≈ 0.617 µM); in the test on S. aureus ATCC 25923 (setting [15]), 2 µg/mL (≈ 1.23 µM); in the test with S. aureus ATCC 25923 (setting [16]), 1 µg/mL (≈ 0.617 µM); in the test with S. aureus ATCC 25923 (setting [17]), 2 µg/mL (≈ 1.23 µM). In addition, the MIC amounted to 1 µg/mL (≈ 0.617 µM) against S. aureus ATCC 25923 (setting [18]); 1 µg/mL (≈ 0.617 µM) in [1] (setting [11]); 2 µg/mL (≈ 1.23 µM) in [1] (S. aureus ATCC 33591 (MRSA), time 0 h (baseline, before peptide exposure)); 2 µg/mL (≈ 1.23 µM) in test [1] (setting [19]); 2 µg/mL (≈ 1.23 µM) in test [1] (setting [20]); 2 µg/mL (≈ 1.23 µM) in [1] (setting [21]). For the same molecule, the MIC in test [1] (setting [22]) is 2 µg/mL (≈ 1.23 µM); in [1] (setting [23]), 1 µg/mL (≈ 0.617 µM); in test [1] (setting [24]) it was 2 µg/mL (≈ 1.23 µM); in test [1] (setting [25]), 1 µg/mL (≈ 0.617 µM). For the same molecule, the “Antimicrobial susceptibility (MIC)” value is recorded as 2 µg/mL in test [2]; 4 µg/mL in [3]; 0.5 µg/mL in test [4]; 2 µg/mL in [5]; 0.125 µg/mL in test [6]; 0.125 µg/mL in [7]. Moreover, the “Antimicrobial susceptibility (MIC)” value in test [8] is 1 µg/mL; in test [9] it was 2 µg/mL; in test [10], 0.125 µg/mL.

These data come from publication PMC12055641, “The Study of Antistaphylococcal Potential of Omiganan and Retro-Omiganan Under Flow Conditions” (Probiotics and Antimicrobial Proteins, 2024).
